# Data: PMC8180025, “Antibacterial, antifungal and antioxidant activities of whole plant chemical constituents of Rumex abyssinicus” (BMC Complementary Medicine and Therapies, 2021)
# Values joined by “and” are separate entries in the source; they are usually repeats but may differ in a detail not shown here. Equal values may be shown once. Marks after values point to notes of the source that are not given here.
# Tests used:
# [1] = test system: Candida albicans ATCC10231; assay: Broth microdilution MIC/MMC; settings: for MMC/MIC / MMC: C. albicans; for MMC: sub-culturing after broth microdilution; for MIC: Candida albicans, ATCC10231
# [2] = test system: Cryptococcus neoformans H99; assay: Broth microdilution MIC/MMC; settings: for MMC/MIC / MMC: C. neoformans; for MMC: sub-culturing after broth microdilution; for MIC: Cryptococcus neoformans, H99
# [3] = DPPH free radical scavenging assay; assay type: biochemical; settings: mean ± SD, triplicate
# Procedure: The free radical scavenging activity of extracts and compounds was evaluated according to described methods. The EC50 (μg/ml), which is the amount of sample necessary to inhibit by 50% the absorbance of free radical DPPH was calculated. Vitamin C was used as a standard control. All the analyses were carried out in triplicate.
# [4] = Gallic acid equivalent antioxidant capacity (GEAC) assay; assay type: biochemical; settings: laccase/ABTS, 420 nm after 240 s; mean ± SD
# Procedure: The GEAC test was done as previously described with slight modifications. In a quartz cuvette, to 950 μL acetate buffer (pH =5.0, 100 mM), the following were added: 20 μL laccase (1 mM stock solution), 20 μL test sample, 10 μL ABTS (2,2′-azinobis(3-ethylbenzothiazoline-6-sulfonic acid) (74 mM stock solution). The purification of laccase from Sclerotinia sclerotiorum was done according to the protocol described. The sample concentrations in the assay mixture were 800, 400, 200, 100, 10 μg/mL for the extracts and 200, 100, 50, 25, 12.5, 6.25, 3.125, 1.56 μg/mL for the isolated compounds. The content of the generated ABTS^●+ radical was measured at 420 nm after 240 s reaction time and was converted to gallic acid equivalents by the use of a calibration curve (Pearson’s correlation coefficient: r = 0.997) constructed with 0, 4, 10, 14, 28, 56, 84 μM gallic acid standards rather than Trolox. Experiments were done in triplicate.
# [5] = test system: Pseudomonas aeruginosa ATCC27853; assay: Broth microdilution MIC/MMC; settings: for MMC/MIC / MMC: P. aeruginosa; for MMC: sub-culturing after broth microdilution; for MIC: Pseudomonas aeruginosa, ATCC27853
# Shigella flexneri SDINT = assay: Broth microdilution MIC/MMC; settings: for MMC/MIC / MMC: S. flexneri; for MMC: sub-culturing after broth microdilution; for MIC: Shigella flexneri
# [6] = test system: Staphylococcus aureus ATCC25923; assay: Broth microdilution MIC/MMC; settings: for MMC/MIC / MMC: S. aureus; for MMC: sub-culturing after broth microdilution; for MIC: Staphylococcus aureus, ATCC25923
# [7] = test system: methicillin sensitive S. aureus MSSA01; assay: Broth microdilution MIC/MMC; settings: for MMC/MIC / MMC: MSSA01; for MMC: sub-culturing after broth microdilution; for MIC: Staphylococcus aureus
# [8] = test system: methicillin resistant S. aureus MRSA03; assay: Broth microdilution MIC/MMC; settings: for MMC/MIC / MMC: MRSA03; for MMC: sub-culturing after broth microdilution; for MIC: Staphylococcus aureus
# P. aeruginosa = assay: Checkerboard combination with antibiotic (FIC); assay type: cell-based, Pseudomonas aeruginosa; settings: combined with ciprofloxacin
# S. flexneri = assay: Checkerboard combination with antibiotic (FIC); assay type: cell-based, Shigella flexneri; settings: combined with ciprofloxacin
# Procedure: (§1) The inoculum was initially prepared as described above. The test microorganisms were inoculated into a 96-well microtitre plates and a serial dilution of two antimicrobial agents: antibiotic and MeOH extract, compound 2 or 4. Each well consisted of unique combination of test sample and antibiotic concentrations. The plates were then incubated for 24 h at 37 °C. The analyses were performed in triplicates. And the antimicrobial agents interactions were evaluated by calculating the fractional inhibitory concentration (FIC) indices. The FIC is defined as follows: MIC of antibiotic tested in combination/MIC of antibiotic tested alone + MIC of extract/compound tested in combination/MIC of extract/compound tested alone. The FIC index is interpreted as FIC ≤ 0.5: synergistic effect, 0.5 < FIC ≤1: additive effect, 1 < FIC ≤2: indifferent effect, and FIC > 2.0: antagonistic effect.
# S. aureus = assay: Checkerboard combination with antibiotic (FIC); assay type: cell-based, Staphylococcus aureus; settings: combined with ciprofloxacin
# MSSA01 = assay: Checkerboard combination with antibiotic (FIC); assay type: cell-based, Staphylococcus aureus; settings: combined with ciprofloxacin
# MRSA03 = assay: Checkerboard combination with antibiotic (FIC); assay type: cell-based, Staphylococcus aureus; settings: combined with ciprofloxacin
# C. albicans = assay: Checkerboard combination with antibiotic (FIC); assay type: cell-based, Candida albicans; settings: combined with fluconazole, checkerboard
# C. neoformans = assay: Checkerboard combination with antibiotic (FIC); assay type: cell-based, Cryptococcus neoformans; settings: combined with fluconazole, checkerboard
# [9] = test system: bacterial and yeast species; assay: Checkerboard combination with antibiotics, whole panel; assay type: cell-based; settings: overall statement over the microorganisms tested
# Procedure: as §1
compound,measurement,setting,value
"OC(Cn1cncn1)(Cn1cncn1)c1ccc(F)cc1F [fluconazole, reference compound]",MMC/MIC,[1],1
same,MMC,[1],1 µg/mL
same,MIC,[1],1 mg/L
same,MMC/MIC,[2],1
same,MMC,[2],2 µg/mL
same,MIC,[2],2 mg/L
"O=C1O[C@H]([C@@H](O)CO)C(O)=C1O [Vitamin C, reference compound]",DPPH free radical scavenging activity (EC50),[3],1.81 ± 0.19^h μg/mL
"Cc1cc(O)c2c(c1)C(=O)c1cccc(O)c1C2=O [Compound 1, Chrysophanol]",DPPH free radical scavenging activity (EC50),[3],4.52 ± 0.36^d μg/mL
same,Gallic acid equivalent antioxidant capacity (GEAC),[4],104.87 ± 1.43^d μg/mL
same,MMC/MIC,[5],2
same,MMC,[5],128 µg/mL
same,MIC,[5],64 mg/L
same,MMC/MIC,Shigella flexneri SDINT,1
same,MMC,Shigella flexneri SDINT,32 µg/mL
same,MIC,Shigella flexneri SDINT,32 mg/L
same,MMC/MIC,[6],2
same,MMC,[6],64 µg/mL
same,MIC,[6],32 mg/L
same,MMC/MIC,[7],1
same,MMC,[7],64 µg/mL
same,MIC,[7],64 mg/L
same,MMC/MIC,[8],2
same,MMC,[8],128 µg/mL
same,MIC,[8],64 mg/L
same,MMC/MIC,[1],1
same,MMC,[1],64 µg/mL
same,MIC,[1],64 mg/L
same,MMC/MIC,[2],1
same,MMC,[2],32 µg/mL
same,MIC,[2],32 mg/L
"O=C(O)c1cn(C2CC2)c2cc(N3CCNCC3)c(F)cc2c1=O [ciprofloxacin, Ciprofloxacin, reference compound]",MMC/MIC,[5],1
same,MMC,[5],0.5 µg/mL
same,MIC,[5],0.5 mg/L
same,MMC/MIC,Shigella flexneri SDINT,1
same,MMC,Shigella flexneri SDINT,8 µg/mL
same,MIC,Shigella flexneri SDINT,8 mg/L
same,MMC/MIC,[6],1
same,MMC,[6],0.5 µg/mL
same,MIC,[6],0.5 mg/L
same,MMC/MIC,[7],1
same,MMC,[7],4 µg/mL
same,MIC,[7],4 mg/L
same,MMC/MIC,[8],1
same,MMC,[8],4 µg/mL
same,MIC,[8],4 mg/L
"O=C1c2cc(O)cc(O)c2C(=O)c2c(O)cc(CO)cc21 [Compound 5, 6-hydroxyemodin (Citreorosein)]",DPPH free radical scavenging activity (EC50),[3],9.88 ± 0.62^f μg/mL
same,Gallic acid equivalent antioxidant capacity (GEAC),[4],81.09 ± 0.93 μg/mL and 81.09 ± 0.93^e μg/mL
same,MMC/MIC,[5],2
same,MMC,[5],64 µg/mL
same,MIC,[5],32 mg/L
same,MMC/MIC,Shigella flexneri SDINT,1
same,MMC,Shigella flexneri SDINT,32 µg/mL
same,MIC,Shigella flexneri SDINT,32 mg/L
same,MMC/MIC,[6],1
same,MMC,[6],32 µg/mL
same,MIC,[6],32 mg/L
same,MMC/MIC,[7],2
same,MMC,[7],256 µg/mL
same,MIC,[7],128 mg/L
same,MMC/MIC,[8],2
same,MMC,[8],256 µg/mL
same,MIC,[8],128 mg/L
same,MMC/MIC,[1],2
same,MMC,[1],32 µg/mL
same,MIC,[1],16 mg/L
same,MMC/MIC,[2],2
same,MMC,[2],32 µg/mL
same,MIC,[2],16 mg/L
"CC(C)[C@@H](C)C=C[C@@H](C)[C@H]1CC[C@H]2[C@]3(O)C=CC4(O)CC(O)CC[C@]4(C)[C@H]3CC[C@]12C (stereo partly shown) [Compound 3, Ergosta-6,22-diene-3,5,8-triol]",MMC/MIC,[5],2
same,MMC,[5],256 µg/mL
same,MIC,[5],128 mg/L
same,MMC,Shigella flexneri SDINT,>256 µg/mL
same,MIC,Shigella flexneri SDINT,128 mg/L
same,MMC,[6],>256 µg/mL
same,MIC,[6],256 mg/L
same,MMC,[7],>256 µg/mL
same,MIC,[7],> 256 mg/L
same,MMC,[8],>256 µg/mL
same,MIC,[8],> 256 mg/L
same,MMC,[1],>256 µg/mL
same,MIC,[1],128 mg/L
same,MMC/MIC,[2],2
same,MMC,[2],128 µg/mL
same,MIC,[2],64 mg/L
"Cc1cc(O)c2c(c1)C(=O)c1cc(O)cc(O)c1C2=O [Compound 4, Emodin]",Interpretation (of FIC index),P. aeruginosa,Synergistic (FIC ≤ 0.5: synergistic effect)
same,FICEx / FIC2 / FIC5 (MIC of extract/compound tested in combination/MIC of extract/compound tested alone),P. aeruginosa; checkerboard,0.125
same,Interpretation (of FIC index),S. flexneri,Synergistic (FIC ≤ 0.5: synergistic effect)
same,FIC (fractional inhibitory concentration index),S. flexneri; checkerboard,0.31
same,FICEx / FIC2 / FIC5 (MIC of extract/compound tested in combination/MIC of extract/compound tested alone),S. flexneri; checkerboard,0.25
same,FICA (MIC of antibiotic tested in combination/MIC of antibiotic tested alone),"S. flexneri; checkerboard, 24 h at 37 °C",0.0625
same,Interpretation (of FIC index),S. aureus,Additive (0.5 < FIC ≤1: additive effect)
same,FIC (fractional inhibitory concentration index),S. aureus; checkerboard,0.625
same,FICEx / FIC2 / FIC5 (MIC of extract/compound tested in combination/MIC of extract/compound tested alone),S. aureus; checkerboard,0.125
same,FICA (MIC of antibiotic tested in combination/MIC of antibiotic tested alone),"S. aureus; checkerboard, 24 h at 37 °C",0.5
same,FIC (fractional inhibitory concentration index),MSSA01,0.5
same,FICEx / FIC2 / FIC5 (MIC of extract/compound tested in combination/MIC of extract/compound tested alone),MSSA01,0.25
same,FICA (MIC of antibiotic tested in combination/MIC of antibiotic tested alone),MSSA01; 24 h at 37 °C,0.25
same,FIC (fractional inhibitory concentration index),MRSA03,0.375
same,FICEx / FIC2 / FIC5 (MIC of extract/compound tested in combination/MIC of extract/compound tested alone),MRSA03,0.125
same,FICA (MIC of antibiotic tested in combination/MIC of antibiotic tested alone),MRSA03; 24 h at 37 °C,0.25
same,FIC (fractional inhibitory concentration index),C. albicans,0.75
same,FICEx / FIC2 / FIC5 (MIC of extract/compound tested in combination/MIC of extract/compound tested alone),C. albicans,0.5
same,FICA (MIC of antibiotic tested in combination/MIC of antibiotic tested alone),C. albicans; 24 h at 37 °C,0.25
same,FIC (fractional inhibitory concentration index),C. neoformans,0.75
same,FICEx / FIC2 / FIC5 (MIC of extract/compound tested in combination/MIC of extract/compound tested alone),C. neoformans,0.5
same,FICA (MIC of antibiotic tested in combination/MIC of antibiotic tested alone),C. neoformans; 24 h at 37 °C,0.25
same,DPPH free radical scavenging activity (EC50),[3],10.69 ± 0.51^f μg/mL
same,Gallic acid equivalent antioxidant capacity (GEAC),[4],79.54 ± 1.26 μg/mL and 79.54 ± 1.26^e μg/mL
same,effect of the association with ciprofloxacin (bacteria) / fluconazole (yeasts),[9],synergistic
same,MMC/MIC,[5],1
same,MMC,[5],16 µg/mL
same,MIC,[5],16 mg/L
same,MMC/MIC,Shigella flexneri SDINT,2
same,MMC,Shigella flexneri SDINT,16 µg/mL
same,MIC,Shigella flexneri SDINT,8 mg/L
same,MMC/MIC,[6],1
same,MMC,[6],8 µg/mL
same,MIC,[6],8 mg/L
same,MMC/MIC,[7],1
same,MMC,[7],32 µg/mL
same,MIC,[7],32 mg/L
same,MMC/MIC,[8],1
same,MMC,[8],32 µg/mL
same,MIC,[8],32 mg/L
same,MMC/MIC,[1],1
same,MMC,[1],8 µg/mL
same,MIC,[1],8 mg/L
same,MMC/MIC,[2],1
same,MMC,[2],8 µg/mL
same,MIC,[2],8 mg/L
